This note sets out measurements from US20110224221A1, “HEMATOPOIETIC PROTECTION AGAINST IONIZING RADIATION USING SELECTIVE CYCLIN-DEPENDENT KINASE 4/6 INHIBITORS” (priority 2008, published 2011).

“Also recorded” adds a separate entry of the source.

The subject of test [1] is hematopoietic stem and progenitor cells. Put plainly: HSPC proliferation in vivo (BrdU incorporation, Ki67) by flow cytometry. Details: species or system mice. The protocol:
BrdU Incorporation in vivo: Mice were treated once daily for 2 days with PD 0332991 at 150 mg/kg. 5-Bromo-2-deoxyuridine (BrdU) was given 24 hours after the initiation of PD 0332991 and continued until the animals were sacrificed for analysis: 24 hours of BrdU by intraperitoneal (i.p.) injection every 6 hours at a dose of 1 mg.
For HSPC proliferation experiments, mice received daily oral gavage with PD0332991 for 2 days with 1 mg BrdU intraperitoneal injection every 6 hours for 24 hours prior to sacrifice. BM-MNC harvest and immunophenotyping was performed using RBC lysis, biotin-conjugated Lin-panel incubation (Invitrogen Corporation, Carlsbad, Calif., United States of America), paramagnetic bead-conjugated straptavidin (Miltinyi Biotec, Bergisch Gladbach, Germany) incubation, and magnetic depletion using an AutoMACS (Miltinyi Biotec, Bergisch Gladbach, Germany). At least 2×10^6 Lin-depleted cells per mouse were incubated with fluorescently labeled antibodies against cell surface antigens used to identify hematopoietic progenitor subpopulations as previously described (see Passegue et al., J. Exp. Med., 202, 1599-1611 (2005); and Kiel et al., Cell, 121, 1109-1121 (2005): CD34-FITC, CD16/32-PacificBlue, IL7Ra-PE-Cy5, and cKit-APC-Alexa750 from eBiosciences, Inc. (San Diego, Calif., United States of America); Sca1-PE-Cy7, CD150-PE-Cy5, and CD48-PacificBlue from BioLegend (San Diego, Calif., United States of America); and Aqua Live/Dead viability dye (Invitrogen Corporation, Carlsbad, Calif., United States of America). Streptavidin-PE-TexasRed (Invitrogen Corporation, Carlsbad, Calif., United States of America) was used to confirm efficiency of lineage-depletion. After cell surface staining, cells were fixed, permeabilized, and stained with antibodies against Ki67-FITC, BrdU-APC, and caspase3-PE (BD Biosciences Pharmingen, San Diego, Calif., United States of America).
In all experiments, gating based on isotype controls was used as appropriate. Flow cytometry was performed using a CyAn ADP (Dako, Glostrup, Denmark) and analyzed with FlowJo software (Tree Star, Ashland, Oreg., United States of Ameria). For each bone marrow sample, a minimum of 200,000 cells were analyzed. For cell culture samples, a minimum of 20,000 cells were analyzed.
PD0332991, which is orally bioavailable, was administered to adult wild-type C57Bl/6 mice by oral gavage. […] See Passeque et al., J. Exp. Med., 202, 1599-1611 (2005); Wilson et al., Cell, 125, 1118-1129 (2008); and Kiel et al., Nature, 449, 238-U210 (2007).
2BrIC was solubilized for oral gavage using formulation #6 from the Hot Rod formulation kit (Pharmatek, Inc. San Diego, Calif., United States of America) and given by oral gavage 2 hours prior to BrdU injection. Also, an additional dose was given at the time of BrdU injection to sustain the G1 arrest in bone marrow.

Test [2] concerns peripheral blood lineages. Put plainly: Peripheral blood counts after TBI. Conditions: for bone marrow protection: after IR; for protection/recovery of peripheral blood lineages: platelets, erythrocytes, myeloid cells, lymphocytes after IR. The format is in vivo, mice. The procedure: For comparison, data from mice that had not been exposed to IR is also shown (lightly shaded bars). […] Error bars show standard error of the mean.
Data was prepared from weekly complete blood counts on tail vein bleeds. Asterisk(s) indicate statistical significance determined by a 2-sided t-test. Error bars are +/− the standard error of the mean.
For TBI experiments, mice were irradiated using a ^137Cs source (AECL Gammacell 40 Irradiator, Atomic Energy of Canada Ltd, Mississauga, Ontario, Canada). Delivered doses were at or near the empirically determined LD90 of 7.5 Gy, consistent with prior studies. See Na Nakorn et al., J. Clin. Invest., 109, 1579-1585 (2002); Herodin et al., Blood, 101, 2609-2616 (2003); Uckun et al., Blood, 75, 638-645 (1990); and Wang et al., Proc. Natl. Acad. Sci., USA, 94, 14590-14595 (1997). Peripheral blood was collected using a tail vein nick for complete blood cells (CBCs) and analyzed with a HemaTrue analyzer (Heska Co., Loveland, Colo., United States of America).
The peripheral blood of animals after IR exposure was studied to confirm that the improved survival was due to protection of hematopoietic lineages.

Setting [3] is: among oligopotent progenitors, 48 hours treatment.

As for `CC(=O)c1c(C)c2cnc(Nc3ccc(N4CCNCC4)cn3)nc2n(C2CCCC2)c1=O` [PD0332991, 6-acetyl-8-cyclopentyl-5-methyl-2-(5-piperazin-1-yl-pyridin-2-ylamino)-8H-pyrido-[2,3-d]-pyrimidin-7-one], in test [1] (48 hours treatment), the “proliferation in early HSPC (BrdU incorporation, Ki67)” value is “clearly reduces proliferation”; the “proliferation of Lin−Kit−Sca1− and Lin+ cells” value is “no change in proliferation”. Also, the “frequency of HSC doubly positive for expression of Ki67 and BrdU” value in test [1] (HSC (Lin−Kit+Sca1+CD48−CD150+), 48 hours treatment, oral gavage, C57Bl/6) is given as “significantly decreased”. For the same compound, the “proliferation of oligopotent progenitors” value in test [1] (Lin−Kit+Sca1−, 48 hours treatment) was “modest inhibition of proliferation”. Besides, the “proliferation of multipotent progenitor cell compartment” value in test [1] (MPP (Lin−Kit+Sca1+CD48−CD150−), 48 hours treatment) is reported as “more pronounced inhibition of proliferation”. For the same compound, in test [1] (setting [3]), the “proliferation of CMP and CLP” value is recorded as “strongest effects”; the “proliferation of GMP and MEP” value is “weaker effects”. Further, in test [2], the bone marrow protection result is recorded as “marked bone marrow protection” and the “protection/recovery of peripheral blood lineages” value is on record as “beneficial effect on the recovery of all peripheral blood lineages”. The anemia and thrombocytopenia entry in test [2] (lethally irradiated mice (7.5 Gy)) is on record as “significantly ameliorated”. The “protection/recovery of peripheral blood lineages” value in test [2] (listed as PD 0332991) is listed as “protects all lineages of blood cells”. Besides, the “blood count nadirs and recovery” value in test [2] (sub-lethal dose of TBI (6.5 Gy)) was “diminished count nadirs and caused more rapid count recovery”.

On to `O=C1NC(=O)c2c1c1c3ccccc3[nH]c1c1[nH]c3cc(Br)ccc3c21` [Compound 2BrIC, 2-bromo-12,13-dihydro-5H-indolo[2,3-a]pyrrolo[3,4]-carbazole-5,6-dione], for which the “incorporation of BrdU into MPP” value in test [1] (Lin−Kit+Sca1+ cells, oral gavage 2 hours prior to and at BrdU injection, relative to formulation alone) was “inhibited the incorporation of BrdU; also recorded: clearly reducing proliferation of the MPP”. Besides, the bone marrow protection result in test [2] is recorded as “marked bone marrow protection”.
